We go through 3 compounds from ChEMBL document CHEMBL1201862, “PubChem BioAssay data set” (2004).

Activity calls are given as the source filed them. Cut-off read from the data, not from the text of the source, for most assays here: active = IC50 of 10 µM or less and inactive = more. Bounds are passed on as bounds.

Experiment [1] has as its target Melanin-concentrating hormone receptor 1 (Homo sapiens, UniProt Q99705). The experiment is described as follows: Fluorescence-based counterscreen for antagonists of the G-protein coupled receptor 7 (GPR7): cell-based high throughput dose response assay to identify antagonists of the melanin-concentrating hormone receptor 1 (MCHR1). In kind it is functional. In general terms: The purpose of a counterscreen is to sort out artefacts and off-target activity.

The target of experiment [2] is T1, Neuropeptides B/W receptor type 1 (Homo sapiens, UniProt P48145).
T1 sequence (P48145 whole entry): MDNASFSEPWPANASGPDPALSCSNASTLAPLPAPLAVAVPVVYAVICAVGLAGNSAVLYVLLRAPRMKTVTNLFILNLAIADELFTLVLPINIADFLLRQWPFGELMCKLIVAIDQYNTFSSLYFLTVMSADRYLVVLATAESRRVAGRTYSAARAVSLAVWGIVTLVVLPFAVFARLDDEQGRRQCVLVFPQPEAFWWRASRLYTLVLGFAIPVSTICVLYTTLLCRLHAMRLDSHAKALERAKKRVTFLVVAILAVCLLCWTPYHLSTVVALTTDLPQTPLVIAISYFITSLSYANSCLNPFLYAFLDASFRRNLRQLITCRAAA
Kind of experiment: Fluorescence-based dose response cell-based high throughput screening assay to identify antagonists of the G-protein coupled receptor 7 (GPR7). [Related pubchem assays: 1952 (Screening assay (GPR7 antagonists).), 1880 (Summary AID.)]. It is filed as functional.

The target in experiment [3] is T2, Neuropeptide Y receptor type 1 (Homo sapiens, UniProt P25929).
T2 sequence (P25929 whole entry): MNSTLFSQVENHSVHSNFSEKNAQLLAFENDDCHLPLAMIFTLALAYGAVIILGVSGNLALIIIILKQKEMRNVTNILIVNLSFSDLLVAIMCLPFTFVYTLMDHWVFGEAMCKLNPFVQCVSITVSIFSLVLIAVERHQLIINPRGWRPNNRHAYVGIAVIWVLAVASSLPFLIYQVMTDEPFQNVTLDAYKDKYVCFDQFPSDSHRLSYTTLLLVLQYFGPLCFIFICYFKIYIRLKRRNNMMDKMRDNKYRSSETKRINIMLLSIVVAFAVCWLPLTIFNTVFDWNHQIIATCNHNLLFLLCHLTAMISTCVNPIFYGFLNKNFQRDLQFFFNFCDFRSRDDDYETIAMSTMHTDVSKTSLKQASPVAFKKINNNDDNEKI
The experiment is described as follows: NPY-Y1 receptor antagonist potency, dose response, cell-based (AID 1277). In kind it is functional.

Experiment [4] concerns the target T3, Neuropeptide Y receptor type 2 (Homo sapiens, UniProt P49146).
T3 sequence (P49146 whole entry): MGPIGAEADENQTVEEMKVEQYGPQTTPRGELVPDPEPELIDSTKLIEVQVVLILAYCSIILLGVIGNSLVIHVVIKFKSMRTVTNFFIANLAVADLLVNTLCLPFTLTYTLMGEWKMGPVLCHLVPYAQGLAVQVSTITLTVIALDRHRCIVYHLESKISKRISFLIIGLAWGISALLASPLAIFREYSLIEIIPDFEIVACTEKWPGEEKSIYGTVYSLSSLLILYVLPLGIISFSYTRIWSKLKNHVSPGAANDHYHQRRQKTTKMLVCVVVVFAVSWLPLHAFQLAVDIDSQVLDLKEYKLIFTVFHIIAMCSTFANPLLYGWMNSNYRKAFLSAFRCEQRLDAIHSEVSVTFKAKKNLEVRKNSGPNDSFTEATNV
The experiment is described as follows: NPY-Y2 antagonist potency, selectivity check, dose response, counter-screen for NPY-Y1 antagonist project, cell-based (AID 1278). In kind it is functional.

The target of the next experiment is T4, Estrogen receptor (Homo sapiens, UniProt P03372).
T4 sequence (P03372 whole entry): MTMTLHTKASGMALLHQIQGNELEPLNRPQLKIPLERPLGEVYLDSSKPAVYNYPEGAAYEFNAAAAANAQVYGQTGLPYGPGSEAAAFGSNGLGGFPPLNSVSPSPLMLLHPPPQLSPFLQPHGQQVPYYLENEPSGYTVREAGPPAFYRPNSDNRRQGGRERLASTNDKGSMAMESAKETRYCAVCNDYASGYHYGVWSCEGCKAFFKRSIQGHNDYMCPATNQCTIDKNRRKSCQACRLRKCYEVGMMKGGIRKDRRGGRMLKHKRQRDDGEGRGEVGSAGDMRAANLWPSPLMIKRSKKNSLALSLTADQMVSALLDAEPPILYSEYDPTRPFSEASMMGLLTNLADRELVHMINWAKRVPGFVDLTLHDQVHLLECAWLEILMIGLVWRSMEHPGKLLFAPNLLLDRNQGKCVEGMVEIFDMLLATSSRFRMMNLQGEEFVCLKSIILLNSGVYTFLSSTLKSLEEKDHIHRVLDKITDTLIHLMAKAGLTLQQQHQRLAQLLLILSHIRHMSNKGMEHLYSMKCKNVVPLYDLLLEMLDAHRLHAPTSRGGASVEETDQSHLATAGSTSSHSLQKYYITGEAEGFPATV
The experiment is described as follows: potentiators of ERα–SRC-1 coactivator binding, dose response, biochemical, TR-FRET, ERα LBD (AID 737).

Experiment [5] deals with Sphingosine 1-phosphate receptor 4 (Homo sapiens, UniProt O95977). Kind of experiment: Fluorescence dose response cell-based high throughput screening assay for antagonists of the Sphingosine 1-Phosphate Receptor 4 (S1P4). [Related pubchem assays: 1524 (Confirmation in triplicates.), 1510 (Primary screen.)]. It is filed as functional.
Experiment [6] addresses T5, Interleukin-8 (Homo sapiens, UniProt P10145).
T5 sequence (P10145 whole entry): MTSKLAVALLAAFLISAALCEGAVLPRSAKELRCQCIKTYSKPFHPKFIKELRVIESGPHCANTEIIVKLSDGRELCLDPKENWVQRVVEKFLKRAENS
The experiment is described as follows: Dose Response confirmation of uHTS small molecule hits for cystic fibrosis induced NFkb Inhibitors in a TNFa-induced IL8 counterscreen. Conditions: read-out: IC50_Mean. In kind it is functional.

Experiment [7] has as its target T6, High affinity choline transporter 1 (Homo sapiens, UniProt Q9GZV3).
T6 sequence (Q9GZV3 whole entry): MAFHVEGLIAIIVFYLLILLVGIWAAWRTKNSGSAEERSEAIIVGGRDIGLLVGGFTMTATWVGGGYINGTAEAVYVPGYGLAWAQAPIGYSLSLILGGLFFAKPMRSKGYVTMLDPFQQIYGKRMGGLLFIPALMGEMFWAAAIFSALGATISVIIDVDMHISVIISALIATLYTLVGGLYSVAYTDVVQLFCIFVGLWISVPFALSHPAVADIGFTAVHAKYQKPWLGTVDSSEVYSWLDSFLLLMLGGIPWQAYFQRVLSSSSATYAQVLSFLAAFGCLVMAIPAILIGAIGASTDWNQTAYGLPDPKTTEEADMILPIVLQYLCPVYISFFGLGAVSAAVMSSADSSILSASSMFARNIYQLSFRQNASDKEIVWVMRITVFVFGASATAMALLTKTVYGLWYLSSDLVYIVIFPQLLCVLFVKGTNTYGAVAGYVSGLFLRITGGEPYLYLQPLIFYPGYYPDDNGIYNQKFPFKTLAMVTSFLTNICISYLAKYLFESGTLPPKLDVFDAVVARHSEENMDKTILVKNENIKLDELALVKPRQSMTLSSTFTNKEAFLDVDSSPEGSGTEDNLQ
The experiment is described as follows: CHT inhibitors, dose response, cell-based, 5-point CRC, membrane potential dye (AID 504840). In kind it is functional.

Experiment [8] addresses Sphingosine 1-phosphate receptor 1 (Homo sapiens, UniProt P21453). It is filed as functional.
In experiment [9] the target is T5, Interleukin-8. The experiment is described as follows: Dose Response confirmation of uHTS small molecule hits for cystic fibrosis induced NFkb Inhibitors in a PAF-induced IL8 counterscreen. It is filed as functional. The following applies: read-out: IC50_Mean.
For experiment [10], the target named is T7, Microphthalmia-associated transcription factor (Homo sapiens, UniProt O75030).
T7 sequence (O75030 whole entry): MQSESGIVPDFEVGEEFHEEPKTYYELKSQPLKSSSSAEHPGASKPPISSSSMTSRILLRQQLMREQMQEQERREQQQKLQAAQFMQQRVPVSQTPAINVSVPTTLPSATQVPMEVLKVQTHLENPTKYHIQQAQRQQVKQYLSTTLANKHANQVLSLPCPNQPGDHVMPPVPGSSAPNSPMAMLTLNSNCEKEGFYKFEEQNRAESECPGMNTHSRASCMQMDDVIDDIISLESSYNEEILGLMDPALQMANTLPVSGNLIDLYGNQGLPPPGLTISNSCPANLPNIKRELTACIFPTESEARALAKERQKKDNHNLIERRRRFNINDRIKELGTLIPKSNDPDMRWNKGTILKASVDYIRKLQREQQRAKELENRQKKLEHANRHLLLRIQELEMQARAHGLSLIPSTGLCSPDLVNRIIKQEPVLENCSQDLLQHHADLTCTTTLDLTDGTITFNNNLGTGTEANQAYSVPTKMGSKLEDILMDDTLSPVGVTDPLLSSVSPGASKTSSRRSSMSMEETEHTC
The experiment is described as follows: TRPM1 promoter luciferase signal decrease, dose response, MITF inhibitor project, cell-based, SK-MEL-5, cherry-picked, set 3 (AID 493073).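 Note: SK-MEL-5 melanoma cells with luciferase driven by the MITF target TRPM1 promoter.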 It is filed as functional.

Sequence of Sphingosine 1-phosphate receptor 4 (O95977 whole entry): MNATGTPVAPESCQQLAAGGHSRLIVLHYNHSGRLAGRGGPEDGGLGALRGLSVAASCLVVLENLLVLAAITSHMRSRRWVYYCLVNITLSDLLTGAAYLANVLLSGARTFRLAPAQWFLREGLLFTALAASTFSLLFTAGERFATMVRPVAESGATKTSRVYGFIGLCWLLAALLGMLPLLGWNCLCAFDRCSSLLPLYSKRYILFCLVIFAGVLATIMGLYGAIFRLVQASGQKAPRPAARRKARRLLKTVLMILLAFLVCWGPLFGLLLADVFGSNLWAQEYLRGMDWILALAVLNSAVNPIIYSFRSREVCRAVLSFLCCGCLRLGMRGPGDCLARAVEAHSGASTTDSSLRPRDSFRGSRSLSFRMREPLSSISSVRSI
Sequence of Sphingosine 1-phosphate receptor 1 (P21453 whole entry): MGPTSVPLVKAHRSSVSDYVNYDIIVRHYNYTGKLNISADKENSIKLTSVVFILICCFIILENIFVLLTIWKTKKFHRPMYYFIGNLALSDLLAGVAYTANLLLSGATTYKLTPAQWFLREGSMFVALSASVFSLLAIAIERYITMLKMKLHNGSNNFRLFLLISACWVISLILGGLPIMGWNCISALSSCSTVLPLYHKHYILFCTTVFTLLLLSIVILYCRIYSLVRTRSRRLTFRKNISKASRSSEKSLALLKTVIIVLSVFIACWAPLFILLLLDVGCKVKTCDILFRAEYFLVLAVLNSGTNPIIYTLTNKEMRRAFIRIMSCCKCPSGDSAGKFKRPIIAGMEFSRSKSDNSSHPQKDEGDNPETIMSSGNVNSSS
Sequence of Melanin-concentrating hormone receptor 1 (Q99705 whole entry): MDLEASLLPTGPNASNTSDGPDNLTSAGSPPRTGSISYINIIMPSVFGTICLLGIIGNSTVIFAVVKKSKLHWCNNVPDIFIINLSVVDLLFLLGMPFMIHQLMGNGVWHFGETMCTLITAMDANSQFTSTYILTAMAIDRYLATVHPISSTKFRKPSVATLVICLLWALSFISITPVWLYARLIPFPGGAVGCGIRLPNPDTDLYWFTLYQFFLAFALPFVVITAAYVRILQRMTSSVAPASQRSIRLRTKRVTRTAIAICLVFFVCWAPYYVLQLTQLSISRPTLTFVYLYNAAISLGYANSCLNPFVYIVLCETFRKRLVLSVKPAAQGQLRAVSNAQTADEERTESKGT

As to `COc1ccc(-c2noc(CN3CCCCC3c3nccn3C)n2)cc1` (stereo unspecified), the IC50 in experiment [1] is > 43.8 µM (not active); in experiment [2], > 43.8 µM (not active); in experiment [3], > 35 µM (not active); in experiment [4], > 35 µM (not active).
As usually defined, the EC50 is the concentration giving half of the maximal effect. For `O=C1c2ccccc2C(=O)N1CCCc1nc2ccccc2c(=O)n1CCCn1ccnc1`, on Estrogen receptor, the concentration for a half-maximal effect (EC50) is 23.5 µM (active).
In general, AC50 refers to the midpoint of the concentration-response curve, whichever way the signal moves. Regarding `CN(CCC#N)C(=O)COC(=O)c1ccccc1C(=O)c1ccc(Cl)c([N+](=O)[O-])c1`, the IC50 is 2.34 µM (active) in experiment [5]; 43 µM (inactive) at Interleukin-8 [6]; 7.81 µM (active) in experiment [7]; 9.72 µM (active) in [8]; 0.967 µM (active) at Interleukin-8 [9]. For the same compound, the AC50 in experiment [10] is 10.9 µM (active).
